Experimental data: ChEMBL document CHEMBL4715821, “Discovery of 4-ethoxy-7H-pyrrolo[2,3-d]pyrimidin-2-amines as potent, selective and orally bioavailable LRRK2 inhibitors” (Bioorg Med Chem Lett, 2018)

What was measured:
[1] = biological target: Protein kinase C zeta type (Homo sapiens) (UniProt Q05513); test: Inhibition of PKCzeta (unknown origin) assessed as residual activity at 1 uM by Kinomescan method relative to control
[2] = biological target: Mitogen-activated protein kinase kinase kinase 20 (Homo sapiens) (UniProt Q9NYL2); test: Inhibition of wild-type human partial length ZAK (M1 to L331 residues) expressed in bacterial expression system assessed as residual activity at 1 uM by Kinomescan method relative to control
[3] = biological target: Insulin receptor (Homo sapiens) (UniProt P06213); test: Inhibition of IR (unknown origin)assessed as residual activity at 1 uM by Kinomescan method relative to control
[4] = biological target: CDK2/Cyclin A2 (Homo sapiens) (UniProt P24941+P20248); test: Inhibition of wild-type human full length CDK2 (M1 to L298 residues)/Cyclin A expressed in bacterial expression system assessed as residual activity at 1 uM by Kinomescan method relative to control
[5] = biological target: Tyrosine-protein kinase Lyn (Homo sapiens) (UniProt P07948); test: Inhibition of wild-type human partial length LYN (C219 to Q511 residues) expressed in bacterial expression system assessed as residual activity at 1 uM by Kinomescan method relative to control
[6] = Unbound fraction in mouse blood; assay type: ADME, tissue-based
[7] = biological target: SRSF protein kinase 3 (Homo sapiens) (UniProt Q9UPE1); test: Inhibition of MSSK1 (unknown origin) assessed as residual activity at 1 uM by Kinomescan method relative to control
[8] = biological target: Bone morphogenetic protein receptor type-2 (Homo sapiens) (UniProt Q13873); test: Inhibition of wild-type human partial length BMPR2 (R179 to Q526 residues) expressed in mammalian expression system assessed as residual activity at 1 uM by Kinomescan method relative to control
[9] = biological target: Platelet-derived growth factor receptor beta (Homo sapiens) (UniProt P09619); test: Inhibition of wild-type human partial length PDGFRB (V582 to Y1009 residues) expressed in bacterial expression system assessed as residual activity at 1 uM by Kinomescan method relative to control
[10] = biological target: Calcium/calmodulin-dependent protein kinase type II subunit delta (Homo sapiens) (UniProt Q13557); test: Inhibition of wild-type human partial length CAMK2D (M1 to E329 residues) expressed in bacterial expression system assessed as residual activity at 1 uM by Kinomescan method relative to control
Calcium/calmodulin-dependent protein kinase type II subunit delta (Homo sapiens), sequence (Q13557 whole entry, the tested form may be a part): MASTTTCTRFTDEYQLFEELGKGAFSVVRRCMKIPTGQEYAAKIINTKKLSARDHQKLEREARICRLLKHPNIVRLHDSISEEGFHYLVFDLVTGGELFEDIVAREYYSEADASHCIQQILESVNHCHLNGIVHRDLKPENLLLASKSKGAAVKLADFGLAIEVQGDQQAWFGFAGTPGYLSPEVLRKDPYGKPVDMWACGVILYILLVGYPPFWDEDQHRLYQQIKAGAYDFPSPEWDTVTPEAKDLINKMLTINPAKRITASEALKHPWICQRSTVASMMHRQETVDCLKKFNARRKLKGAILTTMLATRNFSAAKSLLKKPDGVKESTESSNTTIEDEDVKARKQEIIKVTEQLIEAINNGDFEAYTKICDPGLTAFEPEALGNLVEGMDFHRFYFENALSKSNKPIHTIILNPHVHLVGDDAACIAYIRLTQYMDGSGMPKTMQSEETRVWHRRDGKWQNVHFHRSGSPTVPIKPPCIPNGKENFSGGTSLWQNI

[11] = biological target: Macrophage colony-stimulating factor 1 receptor (Homo sapiens) (UniProt P07333); test: Inhibition of FMS (unknown origin) assessed as residual activity at 1 uM by Kinomescan method relative to control
Homo sapiens = species on record: Homo sapiens; test: Inhibition of PKA (unknown origin) assessed as residual activity at 1 uM by Kinomescan method relative to control
[12] = biological target: Activin receptor type-1 (Homo sapiens) (UniProt Q04771); test: Inhibition of human wild type partial length ACVR1 (C188 to C509 residues) expressed in bacterial expression system assessed as residual activity at 1 uM by Kinomescan method relative to control
Activin receptor type-1 (Homo sapiens), sequence (Q04771 whole entry, the tested form may be a part): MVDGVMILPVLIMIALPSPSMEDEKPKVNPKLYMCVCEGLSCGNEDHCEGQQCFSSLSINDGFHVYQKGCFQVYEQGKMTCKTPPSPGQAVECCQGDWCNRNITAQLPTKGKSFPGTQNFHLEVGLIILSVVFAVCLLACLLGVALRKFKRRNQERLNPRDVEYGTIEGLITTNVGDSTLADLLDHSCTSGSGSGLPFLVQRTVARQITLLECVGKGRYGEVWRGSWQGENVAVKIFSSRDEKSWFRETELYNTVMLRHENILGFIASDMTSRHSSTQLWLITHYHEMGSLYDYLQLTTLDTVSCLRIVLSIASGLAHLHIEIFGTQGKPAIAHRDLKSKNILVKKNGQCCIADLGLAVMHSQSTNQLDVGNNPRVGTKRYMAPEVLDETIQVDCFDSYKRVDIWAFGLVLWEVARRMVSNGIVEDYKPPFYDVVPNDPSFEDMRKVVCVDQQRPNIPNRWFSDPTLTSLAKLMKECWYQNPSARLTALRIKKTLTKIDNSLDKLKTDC

[13] = biological target: Rhodopsin kinase GRK7 (Homo sapiens) (UniProt Q8WTQ7); test: Inhibition of wild-type human full length GRK7 (M1 to L553 residues) expressed in mammalian expression system assessed as residual activity at 1 uM by Kinomescan method relative to control
[14] = biological target: Casein kinase II subunit alpha (Homo sapiens) (UniProt P68400); test: Inhibition of CK2alpha (unknown origin) assessed as residual activity at 1 uM by Kinomescan method relative to control
Casein kinase II subunit alpha (Homo sapiens), sequence (P68400 whole entry, looked up, the tested form may be a part): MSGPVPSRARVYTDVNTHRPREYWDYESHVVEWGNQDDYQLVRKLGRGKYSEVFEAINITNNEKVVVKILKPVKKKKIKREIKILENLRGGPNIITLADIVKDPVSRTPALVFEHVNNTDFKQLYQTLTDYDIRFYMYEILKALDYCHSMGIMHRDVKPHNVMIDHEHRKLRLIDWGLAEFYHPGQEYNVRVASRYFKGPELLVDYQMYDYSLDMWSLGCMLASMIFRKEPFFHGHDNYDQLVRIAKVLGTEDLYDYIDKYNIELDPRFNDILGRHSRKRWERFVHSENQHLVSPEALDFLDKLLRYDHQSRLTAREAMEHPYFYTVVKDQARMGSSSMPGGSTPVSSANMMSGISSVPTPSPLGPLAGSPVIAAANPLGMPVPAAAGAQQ

[15] = biological target: Serine/threonine-protein kinase Nek11 (Homo sapiens) (UniProt Q8NG66); test: Inhibition of wild-type human partial length NEK11 (M1 to E313 residues) expressed in mammalian expression system assessed as residual activity at 1 uM by Kinomescan method relative to control
[16] = biological target: Serine/threonine-protein kinase Chk1 (Homo sapiens) (UniProt O14757); test: Inhibition of CHK1 (unknown origin) assessed as residual activity at 1 uM by Kinomescan method relative to control
[17] = biological target: Ephrin type-A receptor 3 (Homo sapiens) (UniProt P29320); test: Inhibition of wild-type human partial length EPHA3 (D604 to K889 residues) expressed in bacterial expression system assessed as residual activity at 1 uM by Kinomescan method relative to control
Ephrin type-A receptor 3 (Homo sapiens), sequence (P29320 whole entry, the tested form may be a part): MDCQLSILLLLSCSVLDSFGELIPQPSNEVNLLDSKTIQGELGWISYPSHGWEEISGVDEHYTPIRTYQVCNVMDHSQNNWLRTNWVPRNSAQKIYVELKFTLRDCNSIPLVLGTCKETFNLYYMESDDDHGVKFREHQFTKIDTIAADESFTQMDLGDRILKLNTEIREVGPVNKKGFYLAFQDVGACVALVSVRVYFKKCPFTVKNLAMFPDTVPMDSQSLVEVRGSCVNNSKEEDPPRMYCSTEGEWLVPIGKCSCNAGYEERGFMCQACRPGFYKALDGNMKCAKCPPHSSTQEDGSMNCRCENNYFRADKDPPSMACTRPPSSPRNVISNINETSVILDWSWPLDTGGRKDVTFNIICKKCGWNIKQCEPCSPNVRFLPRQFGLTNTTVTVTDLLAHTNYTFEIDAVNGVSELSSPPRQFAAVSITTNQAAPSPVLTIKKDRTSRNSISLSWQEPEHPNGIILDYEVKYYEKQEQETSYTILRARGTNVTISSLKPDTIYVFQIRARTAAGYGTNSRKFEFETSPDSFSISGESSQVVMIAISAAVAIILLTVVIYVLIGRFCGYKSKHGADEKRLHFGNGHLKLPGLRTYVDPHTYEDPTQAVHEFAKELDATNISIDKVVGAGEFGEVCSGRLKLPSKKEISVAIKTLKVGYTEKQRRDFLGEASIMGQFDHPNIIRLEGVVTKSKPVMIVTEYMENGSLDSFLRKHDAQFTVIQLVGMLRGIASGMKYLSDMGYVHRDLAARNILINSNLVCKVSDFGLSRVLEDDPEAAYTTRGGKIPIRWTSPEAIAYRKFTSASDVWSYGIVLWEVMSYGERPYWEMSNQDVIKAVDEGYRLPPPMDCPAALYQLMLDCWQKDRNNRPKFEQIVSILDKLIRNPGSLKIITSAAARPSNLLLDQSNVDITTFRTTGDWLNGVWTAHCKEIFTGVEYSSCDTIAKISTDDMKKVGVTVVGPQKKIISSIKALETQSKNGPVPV

[18] = biological target: Serine/threonine-protein kinase 32C (Homo sapiens) (UniProt Q86UX6); test: Inhibition of wild-type human partial length YANK3 (M68 to G486 residues) expressed in bacterial expression system assessed as residual activity at 1 uM by Kinomescan method relative to control
[19] = Artificial membrane permeability by PAMPA method; assay type: ADME; details: read-out: permeability
[20] = biological target: Casein kinase I isoform gamma-3 (Homo sapiens) (UniProt Q9Y6M4); test: Inhibition of CK1g3 (unknown origin) assessed as residual activity at 1 uM by Kinomescan method relative to control
Casein kinase I isoform gamma-3 (Homo sapiens), sequence (Q9Y6M4 whole entry, looked up, the tested form may be a part, canonical isoform): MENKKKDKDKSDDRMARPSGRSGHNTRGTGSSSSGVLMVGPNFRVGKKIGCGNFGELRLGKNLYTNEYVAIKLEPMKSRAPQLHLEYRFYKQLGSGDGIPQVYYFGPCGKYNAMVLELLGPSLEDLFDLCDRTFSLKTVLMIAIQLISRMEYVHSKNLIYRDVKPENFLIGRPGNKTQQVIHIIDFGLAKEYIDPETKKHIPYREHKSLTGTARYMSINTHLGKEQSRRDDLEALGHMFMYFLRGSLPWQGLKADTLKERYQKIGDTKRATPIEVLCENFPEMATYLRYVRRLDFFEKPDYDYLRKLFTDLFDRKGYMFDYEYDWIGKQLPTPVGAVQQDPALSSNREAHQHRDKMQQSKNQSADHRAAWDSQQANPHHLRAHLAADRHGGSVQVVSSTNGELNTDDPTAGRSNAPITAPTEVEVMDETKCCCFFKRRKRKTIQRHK

[21] = biological target: Serine/threonine-protein kinase SIK1 (Homo sapiens) (UniProt P57059); test: Inhibition of wild-type human partial length SIK1 (M1 to Y304 residues) expressed in bacterial expression system assessed as residual activity at 1 uM by Kinomescan method relative to control
[22] = In vivo inhibition of LRRK2 in Han-Wistar rat assessed as reduction in Ser935 phosphorylation in brain at 30 mg/kg, po by Western blot analysis; assay type: functional; parameters: scale not given: the % may be the effect or the level left
[23] = biological target: Serine/threonine-protein kinase STK11 (Homo sapiens) (UniProt Q15831); test: Inhibition of wild-type human full length LKB1 (M1 to Q433 residues) expressed in bacterial expression system assessed as residual activity at 1 uM by Kinomescan method relative to control
Serine/threonine-protein kinase STK11 (Homo sapiens), sequence (Q15831 whole entry, the tested form may be a part): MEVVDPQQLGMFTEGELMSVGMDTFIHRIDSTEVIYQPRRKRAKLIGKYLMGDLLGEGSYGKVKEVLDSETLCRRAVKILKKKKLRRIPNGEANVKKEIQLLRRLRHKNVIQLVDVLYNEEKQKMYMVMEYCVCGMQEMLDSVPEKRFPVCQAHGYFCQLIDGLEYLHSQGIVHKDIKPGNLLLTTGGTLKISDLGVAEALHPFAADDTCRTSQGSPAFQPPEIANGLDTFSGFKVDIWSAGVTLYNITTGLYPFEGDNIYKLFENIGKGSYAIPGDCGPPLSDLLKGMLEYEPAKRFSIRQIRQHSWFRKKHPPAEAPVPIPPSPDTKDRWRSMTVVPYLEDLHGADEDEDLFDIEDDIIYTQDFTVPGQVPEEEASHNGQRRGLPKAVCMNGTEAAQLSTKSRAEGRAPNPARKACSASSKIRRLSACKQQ

[24] = biological target: Death-associated protein kinase 3 (Homo sapiens) (UniProt O43293); test: Inhibition of wild-type human partial length DAPK3 (M1 to A277 residues) expressed in bacterial expression system assessed as residual activity at 1 uM by Kinomescan method relative to control
Death-associated protein kinase 3 (Homo sapiens), sequence (O43293 whole entry, looked up, the tested form may be a part): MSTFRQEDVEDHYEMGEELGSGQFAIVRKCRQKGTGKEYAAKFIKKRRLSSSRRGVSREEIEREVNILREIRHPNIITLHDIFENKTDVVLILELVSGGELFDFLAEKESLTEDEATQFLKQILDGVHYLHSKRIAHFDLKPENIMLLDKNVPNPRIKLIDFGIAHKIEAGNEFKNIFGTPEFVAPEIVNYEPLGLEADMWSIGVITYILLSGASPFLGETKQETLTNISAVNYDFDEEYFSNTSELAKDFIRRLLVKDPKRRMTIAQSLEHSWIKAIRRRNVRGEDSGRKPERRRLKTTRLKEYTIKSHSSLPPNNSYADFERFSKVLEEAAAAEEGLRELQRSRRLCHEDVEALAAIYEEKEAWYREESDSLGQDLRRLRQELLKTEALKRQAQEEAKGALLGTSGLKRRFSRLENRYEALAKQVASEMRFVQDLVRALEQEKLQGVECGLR

[25] = biological target: Cyclin-dependent kinase 4/cyclin D1 (Homo sapiens) (UniProt P11802+P24385); test: Inhibition of wild-type human full length CDK4/cyclinD1 (M1 to E303 residues) expressed in mammalian expression system assessed as residual activity at 1 uM by Kinomescan method relative to control
[26] = biological target: Serine/threonine-protein kinase OSR1 (Homo sapiens) (UniProt O95747); test: Inhibition of wild-type human full length OSR1 (M1 to S527 residues) expressed in mammalian expression system assessed as residual activity at 1 uM by Kinomescan method relative to control
[27] = biological target: Mitogen-activated protein kinase kinase kinase 8 (Homo sapiens) (UniProt P41279); test: Inhibition of COT1 (unknown origin) assessed as residual activity at 1 uM by Kinomescan method relative to control
Mitogen-activated protein kinase kinase kinase 8 (Homo sapiens), sequence (P41279 whole entry): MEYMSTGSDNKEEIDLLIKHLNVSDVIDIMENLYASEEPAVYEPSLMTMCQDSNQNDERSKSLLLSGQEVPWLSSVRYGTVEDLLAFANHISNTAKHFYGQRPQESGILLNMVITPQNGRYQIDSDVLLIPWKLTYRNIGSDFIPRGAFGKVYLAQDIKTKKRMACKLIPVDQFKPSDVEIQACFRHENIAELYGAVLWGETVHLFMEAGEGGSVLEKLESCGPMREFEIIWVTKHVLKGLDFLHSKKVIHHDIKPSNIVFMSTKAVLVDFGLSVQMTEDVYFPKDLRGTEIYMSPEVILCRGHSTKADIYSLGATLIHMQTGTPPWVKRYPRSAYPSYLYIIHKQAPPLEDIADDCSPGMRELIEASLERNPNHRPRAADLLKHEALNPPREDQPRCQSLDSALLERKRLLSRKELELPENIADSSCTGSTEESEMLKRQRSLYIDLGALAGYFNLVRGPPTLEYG

[28] = Lipophilicity, logD of compound at pH 7.4; details: buffer
[29] = biological target: Ribosomal protein S6 kinase alpha-3 (Homo sapiens) (UniProt P51812); test: Inhibition of wild-type human partial length N-terminal RSK2 kinase domain 1 (M1 to D394 residues) expressed in mammalian expression system assessed as residual activity at 1 uM by Kinomescan method relative to control
Ribosomal protein S6 kinase alpha-3 (Homo sapiens), sequence (P51812 whole entry, the tested form may be a part): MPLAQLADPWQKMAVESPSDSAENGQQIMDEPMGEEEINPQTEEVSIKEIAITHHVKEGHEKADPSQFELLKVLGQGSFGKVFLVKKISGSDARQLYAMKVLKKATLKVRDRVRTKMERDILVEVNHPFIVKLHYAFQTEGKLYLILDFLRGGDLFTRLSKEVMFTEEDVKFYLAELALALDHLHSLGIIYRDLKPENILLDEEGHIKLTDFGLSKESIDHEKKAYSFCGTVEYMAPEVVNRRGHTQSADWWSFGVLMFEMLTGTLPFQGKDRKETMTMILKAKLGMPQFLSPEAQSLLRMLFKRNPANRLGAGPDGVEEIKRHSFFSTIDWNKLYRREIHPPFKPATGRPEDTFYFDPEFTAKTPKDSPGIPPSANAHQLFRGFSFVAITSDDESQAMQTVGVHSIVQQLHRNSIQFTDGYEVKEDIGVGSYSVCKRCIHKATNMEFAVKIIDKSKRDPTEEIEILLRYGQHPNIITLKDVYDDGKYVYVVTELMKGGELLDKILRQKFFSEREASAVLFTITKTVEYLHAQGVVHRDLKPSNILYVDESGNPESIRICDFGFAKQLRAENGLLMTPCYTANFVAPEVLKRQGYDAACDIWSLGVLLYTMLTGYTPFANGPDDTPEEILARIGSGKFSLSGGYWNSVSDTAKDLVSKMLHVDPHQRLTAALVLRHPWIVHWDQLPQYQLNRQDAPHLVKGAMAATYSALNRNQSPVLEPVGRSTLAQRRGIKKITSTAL

CCOc1nc(Nc2ccc(C(=O)N3CCOCC3)cc2OC)nc2[nH]ccc12
Activity [1]: 99.9% | Activity [2]: 97.2% | Activity [3]: 14.9% | Activity [4]: 94.9% | Activity [5]: 99.7% | fraction unbound [6]: 0.031 | Activity [7]: 78.1% | Activity [8]: 72.2% | Activity [9]: 90.9% | Activity [10]: 86.3% | Activity [11]: 106% | Activity (Homo sapiens): 103% | Activity [12]: 108% | Activity [13]: 98.4% | Activity [14]: 79.9% | Activity [15]: 86.5% | Activity [16]: 84.5% | Activity [17]: 99.6% | Activity [18]: 107% | Papp [19]: 48 ×10⁻⁶ cm/s | Activity [20]: 92.3% | Activity [21]: 101% | Activity [22]: 50% | Activity [23]: 99% | Activity [24]: 66.9% | Activity [25]: 97.4% | Activity [26]: 101% | Activity [27]: 101% | logD [28]: 4.5 | Activity [29]: 65.1%
